Source: the NIST ThermoML archive (doi:10.1016/j.jct.2006.05.008)

Assay: molar heat capacity at constant pressure
Conditions: 101.33 kPa, Small (less than 1 g) adiabatic calorimetry

CCCCn1cc[n+](C)c1.[Br-] [1-butyl-3-methylimidazolium bromide]
Conditions | molar heat capacity at constant pressure [J/K/mol]
122.75 K, Glass | 139.07
123.63 K, Crystal | 131.11
124.78 K, Glass | 140.32
125.66 K, Crystal | 132.08
126.82 K, Glass | 141.79
127.7 K, Crystal | 133.1
128.85 K, Glass | 143.22
129.73 K, Crystal | 134.32
130 K, Crystal | 134.3
130.89 K, Glass | 144.53
131.77 K, Crystal | 135.36
132.93 K, Glass | 145.61
133.82 K, Crystal | 136.37
134.98 K, Glass | 147.16
135.86 K, Crystal | 137.63
137.02 K, Glass | 148.47
137.9 K, Crystal | 138.69
139.07 K, Glass | 149.68
139.95 K, Crystal | 139.77
140 K, Crystal | 139.7
141.11 K, Glass | 150.96
142 K, Crystal | 140.95
143.16 K, Glass | 152.33
144.05 K, Crystal | 142.17
145.21 K, Glass | 153.64
146.11 K, Crystal | 143.29
147.27 K, Glass | 154.99
148.17 K, Crystal | 144.04
149.33 K, Glass | 156.22
150 K, Crystal | 145.1
150.23 K, Crystal | 145.16
151.38 K, Glass | 157.56
152.28 K, Crystal | 146.48
153.44 K, Glass | 158.85
154.34 K, Crystal | 147.77
155.5 K, Glass | 160.15
156.4 K, Crystal | 148.83
157.55 K, Glass | 161.46
158.47 K, Crystal | 149.86
159.61 K, Glass | 162.88
160 K, Crystal | 150.5
160.53 K, Crystal | 151.03
161.68 K, Glass | 164.21
162.59 K, Crystal | 152.18
163.74 K, Glass | 165.38
164.66 K, Crystal | 153.33
165.8 K, Glass | 166.7
166.73 K, Crystal | 154.42
167.87 K, Glass | 168.08
168.79 K, Crystal | 155.67
169.93 K, Glass | 169.45
170 K, Crystal | 156
170.86 K, Crystal | 156.71
172 K, Glass | 170.75
172.93 K, Crystal | 157.83
174.07 K, Glass | 172.09
175 K, Crystal | 159
176.14 K, Glass | 173.39
177.07 K, Crystal | 160.17
178.21 K, Glass | 174.81
179.15 K, Crystal | 161.41
180 K, Crystal | 161.6
180.29 K, Glass | 176.19
181.23 K, Crystal | 162.53
182.37 K, Glass | 177.61
183.3 K, Crystal | 163.73
184.44 K, Glass | 178.88
185.38 K, Crystal | 164.89
186.51 K, Glass | 180.34
187.45 K, Crystal | 166.26
188.59 K, Glass | 181.72
189.53 K, Crystal | 167.35
190 K, Crystal | 167.4
190.66 K, Glass | 183.15
191.61 K, Crystal | 168.45
192.74 K, Glass | 184.62
193.69 K, Crystal | 169.62
194.82 K, Glass | 186.01
195.77 K, Crystal | 170.97
196.9 K, Glass | 187.63
197.85 K, Crystal | 172.33
198.98 K, Glass | 189.28
199.93 K, Crystal | 173.55
200 K, Crystal | 173.4
201.07 K, Glass | 191
202.01 K, Crystal | 174.87
203.15 K, Glass | 192.74
204.09 K, Crystal | 176.17
205.24 K, Glass | 194.6
206.18 K, Crystal | 177.52
207.34 K, Glass | 196.57
208.26 K, Crystal | 178.87
209.44 K, Glass | 199.14
